# Values quoted from earlier work in patent publication US20110104281A1, “METHOD FOR TREATING PAIN USING A SUBSTITUTED 2-AMINOTETRALIN COMPOUND” (UCB PHARMA GMBH, priority 2006, published 2011).
# How the values were obtained:
# D3 receptor = D3 receptor (Homo sapiens, UniProt P35462); conditions: cited from earlier work
# fibromyalgia patients = conditions: preliminary clinical studies; cited from earlier work
# 5-HT7 = 5-HT7 (Homo sapiens, UniProt P34969); conditions: cited from earlier work
# D1 receptor = D1 receptor (Homo sapiens, UniProt P21728); conditions: cited from earlier work
# Chain of D1 receptor (P21728 whole entry): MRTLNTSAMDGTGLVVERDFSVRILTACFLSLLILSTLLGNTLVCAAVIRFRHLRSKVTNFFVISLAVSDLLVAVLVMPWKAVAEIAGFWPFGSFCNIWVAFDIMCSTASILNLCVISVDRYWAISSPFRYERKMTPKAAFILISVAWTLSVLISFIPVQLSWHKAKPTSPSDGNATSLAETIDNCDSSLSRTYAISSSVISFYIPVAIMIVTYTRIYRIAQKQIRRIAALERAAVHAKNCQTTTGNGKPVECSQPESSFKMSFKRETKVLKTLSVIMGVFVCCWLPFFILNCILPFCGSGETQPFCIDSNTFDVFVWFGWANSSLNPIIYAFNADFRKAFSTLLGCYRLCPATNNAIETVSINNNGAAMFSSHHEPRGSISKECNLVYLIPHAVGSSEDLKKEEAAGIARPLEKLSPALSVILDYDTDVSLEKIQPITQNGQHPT
# α2B receptor = α2B receptor (Homo sapiens, UniProt P18089); conditions: cited from earlier work
# Chain of α2B receptor (P18089 whole entry): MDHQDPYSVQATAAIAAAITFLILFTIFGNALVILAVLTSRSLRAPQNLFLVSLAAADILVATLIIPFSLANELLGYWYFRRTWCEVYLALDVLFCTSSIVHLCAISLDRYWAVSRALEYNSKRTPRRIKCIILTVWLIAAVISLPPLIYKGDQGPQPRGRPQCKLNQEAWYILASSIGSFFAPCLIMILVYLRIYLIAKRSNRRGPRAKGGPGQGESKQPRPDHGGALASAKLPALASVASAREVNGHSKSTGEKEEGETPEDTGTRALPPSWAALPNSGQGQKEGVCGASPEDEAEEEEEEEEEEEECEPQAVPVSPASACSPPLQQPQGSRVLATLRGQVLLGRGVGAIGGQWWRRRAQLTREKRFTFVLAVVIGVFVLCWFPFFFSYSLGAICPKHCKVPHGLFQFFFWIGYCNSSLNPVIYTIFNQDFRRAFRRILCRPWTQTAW
# 5-HT1A receptor = 5-HT1A receptor (Homo sapiens, UniProt P08908); conditions: cited from earlier work
# Chain of 5-HT1A receptor (P08908 whole entry): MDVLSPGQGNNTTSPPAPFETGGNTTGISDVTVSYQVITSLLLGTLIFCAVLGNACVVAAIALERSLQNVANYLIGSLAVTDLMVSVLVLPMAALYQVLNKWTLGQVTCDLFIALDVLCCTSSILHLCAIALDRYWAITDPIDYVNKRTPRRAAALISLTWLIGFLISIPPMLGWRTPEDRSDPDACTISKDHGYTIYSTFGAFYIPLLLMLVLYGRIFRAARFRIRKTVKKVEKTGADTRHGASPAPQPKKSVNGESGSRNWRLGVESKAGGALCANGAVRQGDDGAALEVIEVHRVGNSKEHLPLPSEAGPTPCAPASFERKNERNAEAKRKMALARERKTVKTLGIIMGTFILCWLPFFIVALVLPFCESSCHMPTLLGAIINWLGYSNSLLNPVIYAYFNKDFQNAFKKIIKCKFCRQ
# α2C = α2C (Homo sapiens, UniProt P18825); conditions: cited from earlier work
# Chain of α2C (P18825 whole entry): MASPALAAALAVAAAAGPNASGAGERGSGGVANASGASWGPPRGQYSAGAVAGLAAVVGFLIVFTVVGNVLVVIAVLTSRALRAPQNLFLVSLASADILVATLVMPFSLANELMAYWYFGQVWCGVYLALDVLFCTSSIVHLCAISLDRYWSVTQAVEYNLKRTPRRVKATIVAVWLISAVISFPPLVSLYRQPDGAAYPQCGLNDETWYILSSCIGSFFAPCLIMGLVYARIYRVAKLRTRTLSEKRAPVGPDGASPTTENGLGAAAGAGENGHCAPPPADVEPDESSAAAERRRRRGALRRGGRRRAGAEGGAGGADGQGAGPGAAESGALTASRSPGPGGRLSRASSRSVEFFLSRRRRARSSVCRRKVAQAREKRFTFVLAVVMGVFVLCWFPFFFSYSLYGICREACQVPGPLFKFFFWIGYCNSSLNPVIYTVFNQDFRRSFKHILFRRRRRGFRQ
# Chain of D3 receptor (P35462 whole entry): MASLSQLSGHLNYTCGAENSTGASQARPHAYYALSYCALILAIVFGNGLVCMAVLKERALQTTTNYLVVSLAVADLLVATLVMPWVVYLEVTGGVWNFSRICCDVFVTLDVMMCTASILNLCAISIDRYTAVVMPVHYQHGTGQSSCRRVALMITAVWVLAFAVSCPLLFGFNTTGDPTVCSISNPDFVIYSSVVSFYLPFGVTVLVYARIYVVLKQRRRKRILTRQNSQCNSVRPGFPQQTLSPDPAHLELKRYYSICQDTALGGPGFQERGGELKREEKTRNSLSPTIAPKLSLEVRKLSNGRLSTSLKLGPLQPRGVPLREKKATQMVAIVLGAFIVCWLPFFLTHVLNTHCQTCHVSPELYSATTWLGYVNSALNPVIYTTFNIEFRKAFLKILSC
# Chain of 5-HT7 (P34969 whole entry, species assumed): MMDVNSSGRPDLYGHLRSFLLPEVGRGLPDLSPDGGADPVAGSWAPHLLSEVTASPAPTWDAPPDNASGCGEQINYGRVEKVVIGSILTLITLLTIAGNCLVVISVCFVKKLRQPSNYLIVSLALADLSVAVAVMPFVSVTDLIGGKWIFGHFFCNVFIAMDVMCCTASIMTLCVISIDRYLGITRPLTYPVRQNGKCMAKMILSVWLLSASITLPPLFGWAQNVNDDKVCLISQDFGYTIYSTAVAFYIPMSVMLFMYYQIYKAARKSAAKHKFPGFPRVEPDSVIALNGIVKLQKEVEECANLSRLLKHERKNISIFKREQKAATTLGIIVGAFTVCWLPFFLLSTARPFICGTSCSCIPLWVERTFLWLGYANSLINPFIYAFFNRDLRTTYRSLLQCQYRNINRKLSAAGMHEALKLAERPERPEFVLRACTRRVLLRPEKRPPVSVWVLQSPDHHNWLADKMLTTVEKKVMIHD
Compound,Affinity for D3 receptor (D3 receptor),Pain in fibromyalgia patients (fibromyalgia patients),Affinity for 5-HT7 (5-HT7),Affinity for D1 receptor (D1 receptor),Affinity / action at α2B receptor (α2B receptor),Affinity / action at 5-HT1A receptor (5-HT1A receptor),Affinity for α2C (α2C)
CCCN(CCC)CCc1cccc2c1CC(=O)N2 [ropinirole],strongest affinity for D3,shown to reduce pain,only weak or no affinity,only weak or no affinity,only weak or no affinity,only weak or no affinity,only weak or no affinity
CCCN[C@H]1CCc2nc(N)sc2C1 [Pramipexole],strongest affinity for D3,shown to reduce pain,only weak or no affinity,only weak or no affinity,only weak or no affinity,only weak or no affinity,only weak or no affinity
